These results are taken from patent US20250243186A1, “PIPERIDINYL INDOLE DERIVATIVES, PREPARATION METHODS AND MEDICINAL USES THEREOF” (HANSOH BIO LLC, priority 2021, published 2025).

Some results are limits rather than exact numbers.

For the first assay, the target named is Recombinant human Factor B catalytic domain (Homo sapiens (Human), UniProt P00751). As to the kind of experiment: Factor B binding assay by TR-FRET. To be noted: Factor B TR-FRET IC50 (nM), 10 nM his-tagged Factor B catalytic domain, 100 nM tracer, 1 h. (TR-FRET usually uses a lanthanide donor and a delayed reading to cut background.)
Sequence of Recombinant human Factor B catalytic domain (P00751 470-764): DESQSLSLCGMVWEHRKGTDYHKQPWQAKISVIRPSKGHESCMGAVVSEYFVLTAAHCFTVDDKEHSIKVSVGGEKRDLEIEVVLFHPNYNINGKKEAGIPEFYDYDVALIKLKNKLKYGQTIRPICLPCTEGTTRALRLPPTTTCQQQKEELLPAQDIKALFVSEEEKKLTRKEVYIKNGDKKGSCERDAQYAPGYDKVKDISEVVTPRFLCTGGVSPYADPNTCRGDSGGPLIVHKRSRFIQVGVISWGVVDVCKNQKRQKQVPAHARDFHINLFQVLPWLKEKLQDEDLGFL
Method: • 1. […] 5× Kinase Buffer A (Thermo Fisher, CAT #PV3189) • 3. LANCE Eu-W1024 Anti-6×His Antibody (PerkinElmer, CAT #AD0401) • 4.
DMSO (Thermo Fisher Scientific) • 6. Compounds—10 mM stock in DMSO • 7. Victor Nivo multimode plate reader (PerkinElmer) • 8.
Factor B binding affinity of each compound tested was determined using a time-resolved fluorescence resonance energy transfer (TR-FRET) technology. 10 nM recombinant his-tagged Factor B catalytic domain, varying concentrations of inhibitors, 4 nM LANCE Eu-W1024 Anti-6×His Antibody and 100 nM TR-FRET_tool2 tracer was incubated in 1× Kinase Buffer A for 1 h. Measurement was performed in a reaction volume of 15 μL by adding 5 μL of the test compound, 5 μL of Factor B/antibody mixture and 5 μL of tracer into white opaque 384-well assay plates.
Usually IC50 stands for the concentration that gives 50% inhibition. Turning to `Cc1cc(C)c2[nH]ccc2c1CN1CCC2(CCCO2)CC1c1ccc(C(=O)O)cc1` (single isomer, unassigned) [2 (Isomer 6), 4-(8-((5,7-dimethyl-1H-indol-4-yl)methyl)-1-oxa-8-azaspiro[4.5]decan-7-yl)benzoic acid], the IC50 worked out at 60 nM.
On the same count and under the same terms, for `Cc1cc(C)c2[nH]ccc2c1CN1CCC(CF)CC1c1ccc(C(=O)O)cc1` (single isomer, unassigned) [7 (Isomer 2), 4-(1-((5,7-dimethyl-1H-indol-4-yl)methyl)-4-(fluoromethyl)piperidin-2-yl)benzoic acid] the value was 157 nM; for `COc1cc(C)c2[nH]ccc2c1CN1CCC2(CC1c1ccc(C(=O)O)cc1)CC(C)(F)C2` (single isomer, unassigned) [42 (Isomer 1), 4-(2-fluoro-7-((5-methoxy-7-methyl-1H-indol-4-yl)methyl)-2-methyl-7-azaspiro[3.5]nonan-6-yl)benzoic acid], 4 nM.
Still for that read-out and setting: next, `Cc1cc(C)c2[nH]ccc2c1CN1C[C@@H]2CCCC2C1c1ccc(C(=O)O)cc1` (single isomer, unassigned) [9 (Isomer 2), 4-(2-((5,7-dimethyl-1H-indol-4-yl)methyl)octahydrocyclopenta[c]pyrrol-1-yl)benzoic acid]: 40.6 nM; `COc1cc(C)c2[nH]ccc2c1C(C)N1CC2CCCC2C1c1ccc(C(=O)O)cc1` (single isomer, unassigned) [37 (Isomer 4), 4-(2-(1-(5-methoxy-7-methyl-1H-indol-4-yl)ethyl)octahydrocyclopenta[c]pyrrol-1-yl)benzoic acid]: 359 nM; `COc1cc(C)c2[nH]ccc2c1CN1CCC2(CCC(F)(F)C2)CC1c1ccc(C(=O)O)cc1` (stereo not drawn) [Example 41, 4-(2,2-difluoro-8-((5-methoxy-7-methyl-1H-indol-4-yl)methyl)-8-azaspiro[4.5]decan-7-yl)benzoic acid]: 20.1 nM.
`COc1cc(C)c2[nH]ccc2c1CN1CCC2(CCO2)CC1c1ccc(C(=O)O)cc1` (single isomer, unassigned) [38 (Isomer 4), 4-(7-((5-methoxy-7-methyl-1H-indol-4-yl)methyl)-1-oxa-7-azaspiro[3.5]nonan-6-yl)benzoic acid]: the IC50 turned out to be 4.8 nM.

Staying with this assay, now noted: read-out: Factor B TR-FRET IC50; 10 nM his-tagged Factor B catalytic domain, 100 nM tracer, 1 h.
Turning to `[2H]C([2H])([2H])Oc1cc(C)c2[nH]ccc2c1CN1CCC2(C[C@H]1c1ccc(C(=O)O)cc1)CC(F)(F)C2` [Example 82], the IC50 is < 2 nM.
On the same count and under the same terms, for `COc1cc(C)c2[nH]ccc2c1CN1CCCCC1c1ccc(C(=O)O)c(C(F)F)c1` (stereo not drawn) [Example 25, 2-(difluoromethyl)-4-(1-((5-methoxy-7-methyl-1H-indol-4-yl)methyl)piperidin-2-yl)benzoic acid] the value was 322 nM.
Same read-out and setting: next, `COc1cc(C)c2[nH]ccc2c1CN1CC2CN(CC(F)F)CC2C1c1ccc(C(=O)O)cc1` (stereo not drawn) [Example 23, 4-(5-(2,2-difluoroethyl)-2-((5-methoxy-7-methyl-1H-indol-4-yl)methyl)octahydropyrrolo[3,4-c]pyrrol-1-yl)benzoic acid]: 143 nM.
As for `COc1cc(C)c2[nH]ccc2c1CN1CCC2(C[C@H]1c1ccc(C(=O)O)c3ccccc13)CC(F)(F)C2` [Example 85], the IC50 was < 2 nM.
On the same count and under the same terms, next, `CCc1cc(C)c2[nH]ccc2c1CN1CCC2(C[C@H]1c1ccc(C(=O)O)cc1)CC(F)(F)C2` [Example 80]: < 2 nM; `Cc1cc(Br)c(CN2CCC3(C[C@H]2c2ccc(C(=O)O)cc2)CC(F)(F)C3)c2cc[nH]c12` (single isomer, unassigned) [78 (Isomer 1)]: 7.4 nM; `CCOc1cc(C)c2[nH]ccc2c1CN1CCC2(C[C@H]1c1ccc(C(=O)O)cc1)CC(F)(F)C2` [Example 86]: 2.1 nM.
The same measure, in the same setting: for `COc1cc(C)c2[nH]ccc2c1CN1CCC2(C[C@H]1c1ccc(C(=O)O)c(C)c1)CC(F)(F)C2` [Example 62] the value was < 2 nM.
